Test results as given in patent publication US11814367B2, “Inhibitors of glycogen synthase 1 (GYS1) and methods of use thereof” (Maze Therapeutics, Inc., priority 2021, dated 2023).

Legend:
[1] = target: hGYS2 enzyme (recombinant hGYS2/GN1 protein) (Homo sapiens (Human), UniProt P54840); assay: GYS2 coupled enzyme assay (PK/LDH); assay type: biochemical; settings: geometric mean of at least 2 assay runs on separate days, read-out: Avg_IC50
Method in brief: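 hGYS2/GN1 200 nM; UDP-Glc 2 mM; glycogen 0.2%; G6P 2 mM; PEP 2 mM, NADH 0.6 mM, PK/LDH 20 U/mL. 50 mM Tris pH 7.5, MgCl2, KCl, BSA, TCEP, 2.5% DMSO. Kinetic A340, 10 min. IC50 = geomean of ≥2 runs.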

[2] = target: hGYS1 enzyme (recombinant hGYS1/GN1 protein) (Homo sapiens (Human), UniProt P13807); assay: GYS1 coupled enzyme assay (PK/LDH); assay type: biochemical; settings: hGYS1/GN1 50 nM, UDP-Glucose 0.8 mM, G6P 1 mM; geometric mean of at least 2 runs
Sequence of hGYS1 enzyme (recombinant hGYS1/GN1 protein) (P13807 whole entry): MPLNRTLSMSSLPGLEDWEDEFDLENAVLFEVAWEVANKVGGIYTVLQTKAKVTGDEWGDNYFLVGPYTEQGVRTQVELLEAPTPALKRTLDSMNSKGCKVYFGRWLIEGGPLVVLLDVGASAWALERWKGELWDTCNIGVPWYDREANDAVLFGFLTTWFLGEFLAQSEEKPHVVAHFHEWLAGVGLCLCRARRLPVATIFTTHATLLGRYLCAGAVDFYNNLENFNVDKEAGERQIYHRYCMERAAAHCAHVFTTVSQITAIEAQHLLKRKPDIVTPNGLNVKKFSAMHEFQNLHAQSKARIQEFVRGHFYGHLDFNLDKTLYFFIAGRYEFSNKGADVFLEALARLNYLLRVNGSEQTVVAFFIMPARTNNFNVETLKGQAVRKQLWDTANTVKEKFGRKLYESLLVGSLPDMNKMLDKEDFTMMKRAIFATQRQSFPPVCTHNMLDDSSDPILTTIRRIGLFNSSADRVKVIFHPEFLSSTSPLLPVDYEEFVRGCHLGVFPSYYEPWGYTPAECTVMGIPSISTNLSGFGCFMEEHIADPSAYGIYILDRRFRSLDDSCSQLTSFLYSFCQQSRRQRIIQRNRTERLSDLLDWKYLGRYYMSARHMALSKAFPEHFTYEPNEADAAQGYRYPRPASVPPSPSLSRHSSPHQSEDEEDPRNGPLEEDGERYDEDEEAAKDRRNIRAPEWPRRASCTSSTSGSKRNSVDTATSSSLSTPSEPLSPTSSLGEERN
Sequence of hGYS1 enzyme (recombinant hGYS1/GN1 protein) (P46976 whole entry partner): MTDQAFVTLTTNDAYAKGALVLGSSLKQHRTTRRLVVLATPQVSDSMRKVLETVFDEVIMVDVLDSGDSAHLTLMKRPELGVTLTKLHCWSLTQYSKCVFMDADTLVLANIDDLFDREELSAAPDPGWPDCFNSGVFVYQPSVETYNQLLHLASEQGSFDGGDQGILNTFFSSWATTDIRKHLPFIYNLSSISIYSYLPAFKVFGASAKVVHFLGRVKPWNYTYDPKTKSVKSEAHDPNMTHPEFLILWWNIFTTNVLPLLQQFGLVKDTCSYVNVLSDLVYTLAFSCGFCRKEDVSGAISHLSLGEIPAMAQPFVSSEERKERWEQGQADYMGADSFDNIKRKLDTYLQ

Sequence of hGYS2 enzyme (recombinant hGYS2/GN1 protein) (P54840 whole entry): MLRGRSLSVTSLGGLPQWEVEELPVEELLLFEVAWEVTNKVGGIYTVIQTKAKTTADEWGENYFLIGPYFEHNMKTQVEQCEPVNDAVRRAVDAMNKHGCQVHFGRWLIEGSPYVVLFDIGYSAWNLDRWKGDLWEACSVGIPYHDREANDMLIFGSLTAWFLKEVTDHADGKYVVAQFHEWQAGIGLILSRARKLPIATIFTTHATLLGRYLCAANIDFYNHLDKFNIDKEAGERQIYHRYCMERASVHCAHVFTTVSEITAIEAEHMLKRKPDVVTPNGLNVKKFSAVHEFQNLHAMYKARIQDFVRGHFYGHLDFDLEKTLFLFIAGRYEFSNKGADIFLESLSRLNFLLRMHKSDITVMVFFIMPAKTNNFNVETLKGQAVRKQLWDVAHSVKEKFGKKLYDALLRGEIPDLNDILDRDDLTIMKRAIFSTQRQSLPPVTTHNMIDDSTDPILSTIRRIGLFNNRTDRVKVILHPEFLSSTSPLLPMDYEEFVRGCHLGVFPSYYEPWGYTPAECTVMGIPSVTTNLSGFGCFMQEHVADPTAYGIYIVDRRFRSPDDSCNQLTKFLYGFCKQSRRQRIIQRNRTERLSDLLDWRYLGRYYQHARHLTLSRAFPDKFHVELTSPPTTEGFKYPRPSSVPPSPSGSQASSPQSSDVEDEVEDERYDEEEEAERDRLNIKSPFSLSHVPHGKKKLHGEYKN
Sequence of hGYS2 enzyme (recombinant hGYS2/GN1 protein) (P46976 whole entry partner): as the sequence (P46976 whole entry partner) above

Row | SMILES | IC50 [1] [nM] | IC50 [2] [nM]
1 | Cc1n[nH]c(CC(=O)N2C[C@H](F)C[C@H]2C(=O)N[C@@H](c2ccccc2)c2ccc(C(C)C)cc2)n1 [Compound 232, (2S,4R)-4-fluoro-1-[2-(3-methyl-1H-1,2,4-triazol-5-yl)acetyl]-N-[(S)-phenyl[4-(propan-2-yl)phenyl]methyl]pyrrolidine-2-carboxamide] | > 100000 | 25
2 | CC(C)c1ccc([C@@H](NC(=O)[C@@H]2C[C@@H](F)CN2C(=O)Cn2cn[nH]c2=O)c2ccccc2)nc1 [Compound 288, (2S,4R)-4-fluoro-1-[2-(5-oxo-4,5-dihydro-1H-1,2,4-triazol-4-yl)acetyl]-N-[(S)-phenyl[5-(propan-2-yl)pyridin-2-yl]methyl]pyrrolidine-2-carboxamide] | > 100000 | 109
3 | CC(C)c1ccc([C@@H](NC(=O)[C@@H]2C[C@@H](F)CN2C(=O)CNC(=O)N(C)C)c2ccccc2)cc1 [Compound 67, (2S,4R)-1-{2-[(dimethylcarbamoyl)amino]acetyl}-4-fluoro-N-[(S)-phenyl[4-(propan-2-yl)phenyl]methyl]pyrrolidine-2-carboxamide] | > 100000 | 10
4 | CC(C)c1ccc([C@@H](NC(=O)[C@@H]2C[C@@H](F)CN2C(=O)CCC(=O)N2CCCC2)c2ccccc2)cc1 [Compound 108, (2S,4R)-4-fluoro-1-[4-oxo-4-(pyrrolidin-1-yl)butanoyl]-N-[(S)-phenyl[4-(propan-2-yl)phenyl]methyl]pyrrolidine-2-carboxamide] | > 100000 | 77
5 | CC(C)c1ccc([C@@H](NC(=O)[C@@H]2CCCN2C(=O)CNC(=O)OC(C)(C)C)c2ccccc2)cc1 [Compound 210, tert-butyl N-{2-oxo-2-[(2S)-2-{[(S)-phenyl[4-(propan-2-yl)phenyl]methyl]carbamoyl}pyrrolidin-1-yl]ethyl}carbamate] | > 100000 | 107
6 | COc1ccc(F)cc1CC(=O)N1C[C@H](F)C[C@H]1C(=O)N[C@@H](c1ccccc1)c1ccc(C(C)C)cc1 [Compound 90, (2S,4R)-4-fluoro-1-[2-(5-fluoro-2-methoxyphenyl)acetyl]-N-[(S)-phenyl[4-(propan-2-yl)phenyl]methyl]pyrrolidine-2-carboxamide] | > 100000 | 32
7 | Cc1nnc(CC(=O)N2C[C@H](F)C[C@H]2C(=O)N[C@@H](c2ccccc2)c2ccc(C(C)C)cc2)o1 [Compound 10, (2S,4R)-4-fluoro-1-[2-(5-methyl-1,3,4-oxadiazol-2-yl)acetyl]-N-[(S)-phenyl[4-(propan-2-yl)phenyl]methyl]pyrrolidine-2-carboxamide] | > 100000 | 50
8 | Cc1cn(CC(=O)N2C[C@H](F)C[C@H]2C(=O)N[C@@H](c2ccccc2)c2ccc(C(C)C)c(F)n2)c(=O)[nH]c1=O [Compound 388, (2S,4R)-4-fluoro-N-[(S)-[6-fluoro-5-(propan-2-yl)pyridin-2-yl](phenyl)methyl]-1-[2-(5-methyl-2,4-dioxo-1,2,3,4-tetrahydropyrimidin-1-yl)acetyl]pyrrolidine-2-carboxamide] | > 100000 | 5
9 | CC(C)c1ccc([C@@H](NC(=O)[C@@H]2C[C@@H](F)CN2C(=O)C(C)n2ccnn2)c2ccccc2)cc1 (stereo partly drawn) [Compound 33, (2S,4R)-4-fluoro-N-[(S)-phenyl[4-(propan-2-yl)phenyl]methyl]-1-[2-(1H-1,2,3-triazol-1-yl)propanoyl]pyrrolidine-2-carboxamide] | > 100000 | 106
10 | Cc1nc(CC(=O)N2C[C@H](F)C[C@H]2C(=O)N[C@@H](c2ccccc2)c2ccc(C(C)C)cc2)cs1 [Compound 52, (2S,4R)-4-fluoro-1-[2-(2-methyl-1,3-thiazol-4-yl)acetyl]-N-[(S)-phenyl[4-(propan-2-yl)phenyl]methyl]pyrrolidine-2-carboxamide] | > 100000 | 37
11 | CC(=O)N1CC[C@@]2(C1)C(=O)NCC2C(=O)N1C[C@H](F)C[C@H]1C(=O)N[C@@H](c1ccccc1)c1ccc(C(C)C)cc1 (stereo in doubt) [Compound 6, (2S,4R)-1-[(4S,5R)-7-acetyl-7-oxo-2,7-diazaspiro[4.4]nonane-4-carbonyl]-4-fluoro-N-[(S)-phenyl[4-(propan-2-yl)phenyl]methyl]pyrrolidine-2-carboxamide] | > 100000 | 211
12 | CC(=O)N1CCOC(C(=O)N2C[C@H](F)C[C@H]2C(=O)N[C@@H](c2ccccc2)c2ccc(C(C)C)cc2)C1 (stereo partly drawn) [Compound 141, (2S,4R)-1-(4-acetylmorpholine-2-carbonyl)-4-fluoro-N-[(S)-phenyl[4-(propan-2-yl)phenyl]methyl]pyrrolidine-2-carboxamide] | > 100000 | 181
13 | Cc1n[nH]c(C)c1CC(=O)N1C[C@H](F)C[C@H]1C(=O)N[C@@H](c1ccccc1)c1ccc(C(C)C)cc1 [Compound 84, (2S,4R)-1-[2-(3,5-dimethyl-1H-pyrazol-4-yl)acetyl]-4-fluoro-N-[(S)-phenyl[4-(propan-2-yl)phenyl]methyl]pyrrolidine-2-carboxamide] | > 100000 | 10
14 | CC(C)c1ccc([C@@H](NC(=O)[C@@H]2C[C@@H](F)CN2C(=O)CCc2cn[nH]c2)c2ccccc2)cc1 [Compound 46, (2S,4R)-4-fluoro-N-[(S)-phenyl[4-(propan-2-yl)phenyl]methyl]-1-[3-(1H-pyrazol-4-yl)propanoyl]pyrrolidine-2-carboxamide] | > 100000 | 136
15 | CC(C)c1ccc([C@@H](NC(=O)[C@@H]2C[C@@H](F)CN2C(=O)Cc2ccon2)c2ccccc2)cc1 [Compound 231, (2S,4R)-4-fluoro-1-[2-(1,2-oxazol-3-yl)acetyl]-N-[(S)-phenyl[4-(propan-2-yl)phenyl]methyl]pyrrolidine-2-carboxamide] | > 100000 | 105
16 | CC(C)c1ccc([C@@H](NC(=O)[C@@H]2C[C@@H](F)CN2C(=O)CN2CCCC2=O)c2ccccc2)cc1 [Compound 192, (2S,4R)-4-fluoro-1-[2-(2-oxopyrrolidin-1-yl)acetyl]-N-[(S)-phenyl[4-(propan-2-yl)phenyl]methyl]pyrrolidine-2-carboxamide] | > 100000 | 76
17 | CC(C)c1ccc([C@@H](NC(=O)[C@@H]2C[C@@H](F)CN2C(=O)CCCc2ccncc2)c2ccccc2)cc1 [Compound 95, (2S,4R)-4-fluoro-N-[(S)-phenyl[4-(propan-2-yl)phenyl]methyl]-1-[4-(pyridin-4-yl)butanoyl]pyrrolidine-2-carboxamide] | > 100000 | 130
18 | CC(C)c1ccc([C@@H](NC(=O)[C@@H]2C[C@@H](F)CN2C(=O)Cn2cccn2)c2ccccc2)nc1 [Compound 292, (2S,4R)-4-fluoro-N-[(S)-phenyl[5-(propan-2-yl)pyridin-2-yl]methyl]-1-[2-(1H-pyrazol-1-yl)acetyl]pyrrolidine-2-carboxamide] | > 100000 | 111
19 | CC(=O)N1CCC[C@H]1C(=O)N[C@H](c1ccc(C(C)C)cc1)c1ccccc1C [Compound 640, (2S)-1-acetyl-N-[(R)-(2-methylphenyl)[4-(propan-2-yl)phenyl]methyl] pyrrolidine-2-carboxamide] | > 100000 | 1440
